From US20250215004A1, “AZOLO COMPOUNDS FOR TREATMENT OF FIBROTIC DISEASES” (GEORG-AUGUST-UNIVERSITÄT GÖTTINGEN STIFTUNG ÖFFENTLICHEN …, priority 2022, published 2025)
In brackets after ≈: the same amount, converted by molar mass.

How the values were obtained:
Assay type in all cases: cell-based
TK173 cells [1] = test: Collagen I Western blot in TGFβ1-treated TK173 fibroblasts; conditions: Homo sapiens, Fibroblast, 10 ng/ml TGFβ1 for 5 days, then compound 48 hours, Collagen I immunoblot
Experimental: (§1) Compound reconstitution. Prior to treatment, each compound was used from a stock solution of a concentration of 10 mg/ml in DMSO. Final concentration of DMSO in cell cultures was kept below 0.1%.
(§2) Cell culture and treatment. The human renal fibroblast cell line TK173 was derived from a normal human kidney (laboratory stock; (G. A. Müller et al., Exp. Nephrol. 1995, 3, 127). Cell line stabilization for research purposes was approved by the Ethics Committee of the Georg-August-University. TK173 cells were cultured in Dulbecco's modified Eagle's medium (DMEM, Gibco, USA) supplemented with 10% fetal bovine serum (FBS, Gibco, Germany) and 1% penicillin-streptomycin (PS, Gibco, USA) at 37° C. in a humidified atmosphere with 5% CO2. Cell line was routinely tested for mycoplasma contamination. To investigate the effect of compounds after profibrotic agent treatment, 3×10^4 TK173 cells were seeded in one well of a 6-well culture plate in normal medium. After 24 hours, the culture medium was removed, and the cells were incubated for a further 24 hours in FBS free culture medium (starvation medium). Then, 10 ng/ml TGFβ1 (R&D Systems, USA) was added to the starvation medium, and the culture medium was changed with fresh TGFβ1 in every alternate day. After 5 days of TGFβ1 treatment, cell culture medium was replaced by starvation medium with compounds at different concentration for following 48 hours of incubation.
Protein Extraction. Total proteins were extracted from the cultured cells by NP40 Cell Lysis Buffer (Invitrogen, USA) containing phosphatase (Sigma-Aldrich, USA) and protease inhibitor (Roche, Switzerland) followed by sonication and centrifugation at 12,000×g for 20 minutes at 4° C. to clear the lysates. The supernatant was collected and measured using Pierce BCA Protein Assay Kit (ThermoFisher Scientific) by PHOmo Microplate Reader (Autobio, China). The samples were stored at −80° C. prior to use.
Immunoblotting. Western blot analysis, 10 μg of extracted proteins were diluted in NuPAGE LDS Samples Buffer (Novex Life technologies, USA) containing 5% 2-Mercaptoethanol (Sigma-Aldrich, Germany), and following denatured for 5 minutes at 95° C. The proteins were resolved by 4-12% NuPAGE SDS-PAGE (Novex Life technologies, USA). Blots were often stripped with Thermo Scientific Restore PLUS Western Blot Stripping Buffer (Thermo Fisher Scientific, Germany) for reprobing. The following antibodies were used for immunoblotting: Collagen I (1:1000; ab233080, Abcam, USA), alpha smooth muscle Actin (1:1000; ab124964, Abcam, USA), GAPDH (1:8000; sc-32233, Santa Cruz, USA). Proteins were detected by LumiGLO chemiluminescent system (Cell Signaling Technology, USA) with appropriate secondary antibodies: anti-mouse HRP (1:2500; Dako, Denmark) and anti-rabbit HRP (1:2500; 7074, Cell Signaling Technology, USA) using ChemiDoc MP Imaging System (Bio-Rad, USA).

TK173 cells [2] = test: ELISA to detect secreted type I collagen (Pro-Collagen I alpha 1) in conditioned media of TGFβ1-treated TK173 fibroblasts; conditions: Homo sapiens, Fibroblast, 10 ng/ml TGFβ1 for 5 days, then compound 48 hours, Pro-Collagen I alpha 1 ELISA of conditioned media, read-out: IC50, concentration where the TGFβ-stimulated collagen secretion is attenuated by 50%
Experimental: as §1, §2
Conditioned media containing the secretome of TK173 fibroblast were harvested after 48 hours of compound treatments. Secretion of pro-Collagen 1 was assessed with Human Pro-Collagen I alpha 1 DuoSet ELISA (R&D Systems, USA). To prepare the ELISA plate, Human Pro-Collagen I α1 Capture Antibody was diluted in ELISA Plate-coating Buffer at 4 μg/ml working concentration. 100 μl of diluted Capture Antibody was added to the 96-well microplates and incubated overnight at room temperature. After three times washing with Wash Buffer, microplates were blocked by adding 300 μl of Reagent Diluent for 1 hour at room temperature. To proceed the ELISA, Human Pro-Collagen I α1 Standards were diluted in Reagent Diluent (range between 31.3 pg/ml-2000 pg/ml) and 100 μl of standards or conditioned mediums were add into designated wells. Microplates were incubated at room temperature for 2 hours. Human Pro-Collagen I α1 Detection Antibody was prepared in Reagent Diluent at 100 ng/ml working concentration and 100 μl of diluted Detection Antibody was applied for 2 hours at room temperature after extensive washing. Then, working solution of Streptavidin-HRP with Reagent Diluent was prepared by diluting 1:40 and added into each well. After 20 minutes at room temperature incubation, microplates were washed and applied with 100 μl of Substrate Solution for 20 minutes followed by Stop Solution after washing. Finally, signals were measured at 450 nm absorbance by PHOmo Microplate Reader (Autobio, China). The amount of pro-collagen 1 antibody fusion was quantified by extrapolating the signal into a linear range of a pro-collagen 1 standard curve. Screening compounds were typically tested in at concentrations between 5 and 200 μg/ml. The IC50 values observed by the dose response curves for each compound (n=4-6, two independent experiments) were obtained by nonlinear regression analysis using Prism 9 software (GraphPad, La Jolla, USA) and represent the concentration where the TGFβ-stimulated collagen secretion is attenuated by 50%.

TK173 cells [3] = test: Collagen I mRNA PCR assay (qPCR, normalized to GAPDH) in TGFβ1-treated TK173 fibroblasts; conditions: Homo sapiens, Fibroblast, 10 ng/ml TGFβ1 for 5 days, then compound 48 hours
Experimental: as §1, §2
RNA isolation. Total RNA was extracted by the TRIzol reagent (Life technologies, USA) and purified by PureLink RNA Mini Kit (Ambion, USA) according to instructions available from the manufacturer with minor modifications. The samples were stored at −80° C. prior to use. RNA concentrations were measured by NanoDrop Spectrophotometer (ThermoFisher Scientific, USA), and were equilibrated to 100 ng for complementary DNA (cDNA) synthesis.
Quantitative real-time PCR analysis (qPCR). For SYBR Green-based qPCR analysis, cDNA preparation was performed by using DNAse I (Sigma-Aldrich, USA) digestion to remove residual genomic DNA and SuperScript II Reverse Transcriptase kit (Invitrogen, USA) to synthesize cDNA following the manufacturer's detailed instructions. All qPCR reactions were performed using the StepOne Plus Real-Time System (Applied Biosystems, USA) and amplifications were done using the SYBR Green PCR Master Mix (Applied Biosystems, USA). The thermal cycling conditions were initiated to 95° C. for 20 seconds, 40 amplification cycles at 95° C. for 3 seconds and 60° C. for 30 seconds, with one cycle of dissociation at 95° C. for 15 seconds, 60° C. for 60 seconds, and 95° C. for 15 seconds. Three replicates per sample were run in duplicate. The experimental cycle threshold (Ct) values were normalized to those obtained for GAPDH, and the relative gene expression level was determined using the 2_ddCT methods.

Row | Structure (SMILES) | IC50 (TK173 cells [1]) [µg/mL] | IC50 (TK173 cells [2]) [µg/mL] | IC50 (TK173 cells [3]) [µg/mL]
1 | CNc1nn2nnnc2c2ncccc12 (single isomer, unassigned) [Compound 27, N-methylpyrido[2,3-d]tetrazolo[1,5-b]pyridazin-6-amine] | < 30 | – | –
2 | Cc1nn2nnnc2c2ccccc12 [Compound 2, 6-Methyl-tetrazolo[5,1-a]phthalazine] | – | 58 (≈ 313 µM) | –
3 | Cc1nn2c(C)nnc2c2ccccc12 [Compound 5, 3,6-Dimethyl-1,2,4-triazolo[3,4-a]phthalazine] | – | 39 (≈ 197 µM) | < 20
4 | Cc1nnc2c3ccccc3c(C#N)nn12 [Compound 6, 3-Methyl-1,2,4-triazolo[3,4-a]phthalazine-6-carbonitrile] | < 5 | 61 (≈ 292 µM) | –
5 | Cc1nnc2c3ccccc3c(NCCO)nn12 [Compound 7, 2-[(3-methyl-1,2,4-triazolo[3,4-a]phthalazin-6-yl)amino]-ethanol] | – | 32 (≈ 132 µM) | –
6 | COc1cc2cnn3c(C)nnc3c2cc1OC [Compound 9, 8,9-Dimethoxy-3-methyl-1,2,4-triazolo[3,4-a]phthalazine] | < 1 | 10 (≈ 40.9 µM) | –
7 | FC(F)(F)c1nnc2c3ccccc3cnn12 [Compound 10, 3-Trifluoromethyl-1,2,4-Triazolo[3,4-a]phthalazine] | – | 93 (≈ 390 µM) | –
8 | [2H]C([2H])([2H])c1nnc2c3ccccc3cnn12 [Compound 12, 3-D3-Methyl-1,2,4-triazolo[3,4-a]phthalazine] | < 5 | – | < 50
9 | OCc1nnc2c3ccccc3cnn12 [Compound 13, 1,2,4-Triazolo[3,4-a]phthalazin-3-yl-methanol] | – | 87 (≈ 435 µM) | –
10 | CCc1nnc2c3ccccc3cnn12 [Compound 14, 3-Ethyl-1,2,4-triazolo[3,4-a]phthalazine] | < 30 | – | –
11 | c1ccc2c(c1)cnn1cnnc21 [Compound 15, 1,2,4-Triazolo[3,4-a]phthalazine] | < 40 | 105 (≈ 617 µM) | –
12 | c1cc2c(cnn3nnnc23)s1 [Compound 35, Tetrazolo[1,5-b]thieno[3,2-d]pyridazine] | < 40 | 30 (≈ 169 µM) | –
13 | Cc1nnc2c3cscc3c(Cl)nn12 [Compound 38, 6-chloro-3-methylthieno[3,4-d][1,2,4]triazolo[4,3-b]pyridazine] | – | < 80 | –
14 | Cc1nnc2c3cscc3cnn12 [Compound 39, 3-methylthieno[3,4-d][1,2,4]triazolo[4,3-b]pyridazine] | – | < 80 | –
15 | c1nn2nnnc2c2cscc12 [Compound 41, Tetrazolo[1,5-b]thieno[3,4-d]pyridazine] | – | < 60 | –
16 | Cc1nnc2c3c(Cl)cccc3cnn12 [Compound 45, 10-chloro-3-methyl-[1,2,4]triazolo[3,4-a]phthalazine] | – | 20 (≈ 91.5 µM) | –
17 | Clc1cccc2cnn3nnnc3c12 [Compound 47a, 10-chlorotetrazolo[5,1-a]phthalazine] | – | < 5 | –

Row | Structure (SMILES) | IC50 (TK173 cells [1]) [µg/mL] | IC50 (TK173 cells [2]) [µg/mL] | IC50 (TK173 cells [3]) [µg/mL]
18 | Cc1nnc2c3cc(Cl)ccc3cnn12 [Compound 49a, 9-chloro-3-methyl-[1,2,4]triazolo[3,4-a]phthalazine] | < 50 | < 30 | –
19 | Cc1nnc2c3ccc(Cl)cc3cnn12 [Compound 49b, 8-chloro-3-methyl-[1,2,4]triazolo[3,4-a]phthalazine] | – | 30 (≈ 137 µM) | –
20 | Clc1ccc2cnn3nnnc3c2c1 [Compound 51a, 9-chlorotetrazolo[5,1-a]phthalazine] | ≤ 40 | – | –
21 | Clc1ccc2c(cnn3nnnc23)c1 [Compound 51b, 8-chlorotetrazolo[5,1-a]phthalazine] | < 5 | – | < 5
22 | Cc1nnc2c3cc(Cl)c(Cl)cc3cnn12 [Compound 53, 8,9-Dichloro-3-methyl-[1,2,4]triazolo[3,4-a]phthalazine] | < 60 | < 20 | –
23 | Clc1cc2cnn3nnnc3c2cc1Cl [Compound 55, 8,9-Dichlorotetrazolo[5,1-a]phthalazine] | < 20 | < 10 | –
24 | Fc1cccc2cnn3nnnc3c12 [Compound 59a, 10-Fluorotetrazolo[5,1-a]phthalazine] | – | < 20 | –
25 | Fc1cccc2c1cnn1nnnc21 [Compound 59b, 7-fluorotetrazolo[5,1-a]phthalazine] | – | < 5 | –
26 | Cc1nnc2c3cc(F)ccc3cnn12 [Compound 61a, 9-Fluoro-3-methyl-[1,2,4]triazolo[3,4-a]phthalazine] | < 60 | 530 (≈ 2620 µM) | –
27 | Cc1nnc2c3ccc(F)cc3cnn12 [Compound 61b, 8-fluoro-3-methyl-[1,2,4]triazolo[3,4-a]phthalazine] | < 80 | < 30 | –
28 | Fc1ccc2cnn3nnnc3c2c1 [Compound 63a, 9-Fluorotetrazolo[5,1-a]phthalazine] | < 70 | < 30 | –
29 | Fc1ccc2c(cnn3nnnc23)c1 [Compound 63b, 8-fluorotetrazolo[5,1-a]phthalazine] | < 30 | < 50 | –
30 | Cc1nnc2c3cc(F)c(F)cc3cnn12 [Compound 65, 8,9-difluoro-3-methyl-[1,2,4]triazolo[3,4-a]phthalazine] | < 50 | < 50 | –
31 | Fc1cc2cnn3nnnc3c2cc1F [Compound 67, 8,9-difluorotetrazolo[5,1-a]phthalazine] | – | < 3 | –
32 | COc1ccc2cnn3c(C)nnc3c2c1 [Compound 69a, 9-Methoxy-3-methyl-[1,2,4]triazolo[3,4-a]phthalazine] | < 30 | < 30 | –
33 | COc1ccc2c(cnn3c(C)nnc23)c1 [Compound 69b, 8-methoxy-3-methyl-[1,2,4]triazolo[3,4-a]phthalazine] | < 80 | < 30 | –
34 | CC(C)Oc1nn2nnnc2c2c(Cl)cccc12 [Compound 72, 10-Chloro-6-isopropoxytetrazolo[5,1-a]phthalazine] | < 5 | < 5 | –
